One assay deals with T1, TRPM8 (Homo sapiens, UniProt Q7Z2W7).
T1 construct: expressed in transfected cells
The experiment in a line: In vitro Fluo8-NW calcium assay (FLIPR) on HEK293T cells stably overexpressing TRPM8. Conditions: for TRPM8 screening result: single dose, qualitative. It counts as cell-based. An excerpt: (§1) Pure phytochemicals were submitted to in vitro assays with a platform of twenty cloned receptors of the bitter taste TAS2R family and four receptors of the TRP family related to the perception of taste and somatosensory sensations. All experiments have been repeated three times, each time with four replicates. […] For simplicity, only those bitter taste receptors having reproducible positive assay, namely TASR10, 14 and 49, are reported (Table 1).
For those compounds showing activity on one or more receptor(s), the concentration/response curves were plotted and the EC50 calculated.
(§2) For the biological tests, several compounds were purchased as references from different suppliers (Sigma Aldrich, ChromaDex, Irvine, CA, USA, and Tocris Bioscience, Bristol, UK) and dissolved in assay buffer (130 mM NaCl, 5 mM KCl, 1 mM MgCl2, 2 mM CaCl2, 5 mM NaHCO3 and 20 mM HEPES, pH 7.4) or in a mixture of assay buffer and DMSO, never exceeding a final DMSO concentration of 0.5% (v/v) to avoid toxic effects and possible artefacts on transfected cells.
(§3) All human TAS2R and G15Gi1 cDNAs were produced as reported in Bassoli et al. cDNAs for human TRPA1-M5-M8-V1-V4 were cloned into a pcDNA6 expression vector (Invitrogen-Thermo Fisher, Waltham, MA, USA).
(§4) All experiments were performed using HEK293T cells (ATCC).
For TRP platform experiments, cells were cultured in MEM/EBSS medium (ECB2071L EuroClone, Milan, Italy) plus 10% (v/v) fetal bovine serum (FBS) (26400-044 Gibco, Karlsruhe, Germany) and 1% (v/v) Pen/Strep 10K/10K stock (17-602E Lonza, Basel, Switzerland). Stable cell lines were generated overexpressing each TRP channel, and clones were selected with 500 µg/mL of G418 (ant-gn-5 Invivogen, Karlsruhe, Germany). To analyze TRP receptor responses, cells were plated at a concentration of 20,000 cells/well in 384-well plates (GR-4330 Twin Helix srl, Milan, Italy). Cellular responses were measured 24 h after seeding.
For TRPA1-M8-V1-V4 experiments, a solution of Fluo8-NW calcium-sensitive dye (36316 AAT BioQuest, Sunnyvale, CA, USA) was prepared using the assaybuffer and diluting the kit components 1:2 according to the manufacturer’s instructions. Twenty-four hours after seeding, cells were incubated one hour at RT, loaded with 40 µL of Fluo8-NW solution for each well and incubated again for one hour at RT before data acquisition.
For TRPM5 experiments, cells were loaded 24 h after seeding with a Membrane Potential Dye (R8034 MDC) solution in assay buffer according to the manufacturer’s instructions and incubated at 37 °C for 1 h before acquisition. All experiments were performed using a fluorometric imaging plate reader (FLIPR^TETRA, Molecular Devices equipped with ICCD Camera from Stanford Photonics, INC, (Palo Alto, CA, USA) and kinetics were visualized with Molecular Devices’ Screenworks 3.0 (Sunnyvale, CA, USA).
(§5) For the calculation of concentration-response curves, responses were calculated as the difference between maximal and minimal relative fluorescence unit (RFU) values in a selected time window (11–60 s) and were normalized to the basal well fluorescence (Time Point 1, before compound injection) in order to compensate for differences in cell density (∆F/F0). All of the experiments have been repeated three times, each time with four replicates. All of the results are averages of at least four replicates. Raw data are available in Supplementary Material, Figures S3–S6.

For assay [1], the system named is twenty TAS2R bitter taste receptors. The experiment in a line: In vitro screening on the platform of twenty cloned TAS2R bitter taste receptors. The assay is classed as cell-based, human. Conditions: at the tested concentration.
Excerpt: as §1, §2, §3, §4
For the bitter platform experiments, cells were cultured, transfected and analyzed as previously described.
For the bitter platform experiments, data analyses were performed as previously described.
as §5

T1 sequence (Q7Z2W7 whole entry): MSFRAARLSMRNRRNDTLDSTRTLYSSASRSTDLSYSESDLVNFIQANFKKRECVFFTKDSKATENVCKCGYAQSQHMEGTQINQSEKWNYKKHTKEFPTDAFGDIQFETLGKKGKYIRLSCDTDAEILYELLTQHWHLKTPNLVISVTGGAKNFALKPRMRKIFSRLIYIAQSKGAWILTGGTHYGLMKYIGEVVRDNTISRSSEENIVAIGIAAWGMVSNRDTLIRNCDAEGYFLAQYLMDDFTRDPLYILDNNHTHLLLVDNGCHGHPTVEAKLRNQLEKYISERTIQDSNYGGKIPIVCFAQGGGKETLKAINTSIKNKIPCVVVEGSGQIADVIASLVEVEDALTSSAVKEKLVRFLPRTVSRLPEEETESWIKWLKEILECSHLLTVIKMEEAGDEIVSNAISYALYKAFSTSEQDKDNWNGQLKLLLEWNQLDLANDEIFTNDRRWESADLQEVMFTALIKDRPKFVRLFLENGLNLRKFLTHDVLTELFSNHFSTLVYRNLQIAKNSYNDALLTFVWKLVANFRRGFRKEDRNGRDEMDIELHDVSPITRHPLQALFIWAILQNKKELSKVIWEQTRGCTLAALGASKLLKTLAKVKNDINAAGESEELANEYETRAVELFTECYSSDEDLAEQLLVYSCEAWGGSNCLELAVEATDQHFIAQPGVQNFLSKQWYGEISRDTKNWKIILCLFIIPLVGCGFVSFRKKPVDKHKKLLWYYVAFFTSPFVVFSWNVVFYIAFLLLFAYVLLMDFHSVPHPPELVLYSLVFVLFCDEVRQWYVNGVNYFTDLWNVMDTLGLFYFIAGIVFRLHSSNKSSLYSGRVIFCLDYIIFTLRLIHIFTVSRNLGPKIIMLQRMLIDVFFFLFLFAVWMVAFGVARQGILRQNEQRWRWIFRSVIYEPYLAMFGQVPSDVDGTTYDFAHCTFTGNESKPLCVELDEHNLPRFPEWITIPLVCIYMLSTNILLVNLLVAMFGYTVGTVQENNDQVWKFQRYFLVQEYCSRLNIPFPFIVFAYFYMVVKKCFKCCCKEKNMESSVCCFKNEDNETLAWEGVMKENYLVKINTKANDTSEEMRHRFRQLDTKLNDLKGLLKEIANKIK

As to `C[C@@H]1O[C@@H](OC[C@H]2O[C@@H](Oc3c(-c4ccc(O)c(O)c4)oc4cc(O)cc(O)c4c3=O)[C@H](O)[C@@H](O)[C@@H]2O)[C@H](O)[C@H](O)[C@H]1O` [Compound 1, rutin], at TRPM8, the TRPM8 screening result was “−”. For the same molecule, the “Response on the twenty TAS2R receptors (in words)” value (from here on “Response”) in assay [1] was “inactive”. As to `C=CC(C)(C)c1cc2cc3c(cc2oc1=O)OC(C(C)(C)OC(C)=O)C3` (stereo not shown) [Compound 2, rutamarin], on TRPM8, the “Activity on TRPM8 (in words)” value is “strong antagonist”.

Regarding `COc1c2ccoc2cc2oc(=O)ccc12` [Compound 3, bergapten], the TRPM8 screening result at TRPM8 was “−”. `COc1c2occc2cc2ccc(=O)oc12` [Compound 4, xanthotoxin]: the TRPM8 screening result at TRPM8 was “−”.

Take `COc1c2ccoc2c(OC)c2oc(=O)ccc12` [Compound 5, isopimpinellin]: at TRPM8, the TRPM8 screening result is given as “−”.

On to `COc1cc2nc3occc3c(OC)c2cc1OC` [Compound 7, kokusaginin], for which the TRPM8 screening result on TRPM8 was “−”. The “Response” value in assay [1] was “did not respond”. For `COc1ccc2c(OC)c3ccoc3nc2c1OC` [Compound 8, skimmianine], on TRPM8, the TRPM8 screening result is reported as “−”. On to `CCCCCCCCCC(C)=O` [Compound 9, 2-undecanone], for which, at TRPM8, the TRPM8 screening result was “−”. For the same molecule, the “Response” value in assay [1] was “inactive”. As for `CCCCCCCC(C)=O` [Compound 10, 2-nonanone], the TRPM8 screening result at TRPM8 is listed as “−”. In addition, the “Response” value in assay [1] is “inactive”.

The record behind these values is PMC6331789, “Phytochemicals from Ruta graveolens Activate TAS2R Bitter Taste Receptors and TRP Channels Involved in Gustation and Nociception” (Molecules, 2015).
